Test results reported in article PMC4919791, “Effect of curcumin analogs onα-synuclein aggregation and cytotoxicity” (Scientific Reports, 2016).
“Also recorded” adds a separate entry of the source.

Tests used:
[1] = target: T1, preformed α-Syn amyloid fibrils (Homo sapiens, UniProt P37840); test: MTT assay of preformed α-Syn fibrils incubated with curcumin analogs; assay type: cell-based; conditions: fibrils incubated with analog 48 h at 37 °C; SH-SY5Y cells
T1 construct: made in house; host or cells: Escherichia coli BL21
Procedure: The concentration of the fibrils was determined by subtraction of supernatant concentration from the original concentration of α-Syn kept for fibrillation.

[2] = target: T2, α-Syn (Homo sapiens, UniProt P37840); test: α-Syn aggregation kinetics by compound fluorescence; assay type: biochemical; conditions: in presence of analog
T2 construct: made in house; host or cells: Escherichia coli BL21
Procedure: ThT fluorescence was used to monitor the aggregation kinetics of α-Syn only as a control.
Subsequently, we examined the effect of these analogs on α-Syn oligomerization by time dependent static light scattering experiment. […] After aggregation, TEM study was done to determine the effects of these analogs on the morphology of the resultant aggregates.
The α-Syn amyloid aggregation was started with LMW α-Syn of concentration ~300 μM in 1.5 ml microfuge tube in 20 mM MES buffer, pH 6.0, with 0.01% NaN3. […] The microfuge tubes with protein solutions were placed into Echo-Therm model RT11 vertical rotor (Torrey Pines Scientific, USA) with a speed of 50 rpm, at 37 °C inside an incubator.
The experiments were performed in FluoroMax-4 spectrofluorometer (HORIBA JobinYvon) with excitation and emission slit widths of 5 nm. Fluorescence was done in 20 mM MES buffer (pH 6.0, 0.01% NaN3).

Compound: COc1cc(/C=C/C(=O)CC(=O)/C=C/c2ccc(OCc3ccccc3)c(OC)c2)ccc1OCc1ccccc1 [C6]
- cell viability, MTT, preformed α-Syn fibrils incubated with analog [1]: 92.9%
- effect on toxicity of preformed α-Syn fibrils, MTT [1]: reduction in toxicity
- effect on rate/kinetics of α-Syn aggregation [2]: fastest; also recorded: significantly accelerated α-Syn aggregation kinetics
- lag time of α-Syn aggregation ([2]; compound fluorescence, MES pH 6.0): 3.5 ± 0.5 h
